Experimental data as given in publication PMC10763615, “Identification and engineering of potent cyclic peptides with selective or promiscuous binding through biochemical profiling and bioinformatic data analysis” (RSC Chemical Biology, 2023).
pKd: −log10 of the molar value. Read-outs that look alike come from different tables or passages of the source. Positions of bridges follow the written chain, without caps; N, C: chain ends. Residues, ends and D or L forms follow the SMILES beside them.

What was measured:
Format in all cases: binding
FGF-R3C ECD = target: T1, FGF-R3C ECD (Homo sapiens, UniProt P22607); test: biochemical; design: DNA constructs for the extracellular domain (ECD) of human FGF-; HPC4 (C); made in house; host or cells: HEK 293-6E
T1 sequence (P22607 23-375 limits assumed): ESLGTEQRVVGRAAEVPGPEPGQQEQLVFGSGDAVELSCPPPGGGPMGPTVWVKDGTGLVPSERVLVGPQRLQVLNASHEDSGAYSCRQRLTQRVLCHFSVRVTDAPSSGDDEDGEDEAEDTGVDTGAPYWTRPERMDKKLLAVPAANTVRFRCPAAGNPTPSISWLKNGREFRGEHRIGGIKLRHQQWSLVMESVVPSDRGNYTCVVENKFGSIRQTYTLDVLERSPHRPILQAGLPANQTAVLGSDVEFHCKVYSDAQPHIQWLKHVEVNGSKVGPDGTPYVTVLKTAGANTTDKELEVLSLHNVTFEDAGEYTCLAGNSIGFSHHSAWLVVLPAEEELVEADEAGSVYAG
Summary of the method: (§1)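 BLI, streptavidin sensors loaded with biotinylated receptor ECD. Single-point: ~1 μM crude peptide, PBS pH7.4/0.05% Tween-20/0.01% BSA; association then dissociation in buffer. KD corrected for UPLC-CAD-determined concentration.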

FGF-R1C ECD = target: T2, FGF-R1C ECD (Homo sapiens, UniProt P11362); test: biochemical; design: DNA constructs for the extracellular domain (ECD) of human FGF-; HPC4 (C); made in house; host or cells: HEK 293-6E
T2 sequence (P11362 22-376 limits assumed): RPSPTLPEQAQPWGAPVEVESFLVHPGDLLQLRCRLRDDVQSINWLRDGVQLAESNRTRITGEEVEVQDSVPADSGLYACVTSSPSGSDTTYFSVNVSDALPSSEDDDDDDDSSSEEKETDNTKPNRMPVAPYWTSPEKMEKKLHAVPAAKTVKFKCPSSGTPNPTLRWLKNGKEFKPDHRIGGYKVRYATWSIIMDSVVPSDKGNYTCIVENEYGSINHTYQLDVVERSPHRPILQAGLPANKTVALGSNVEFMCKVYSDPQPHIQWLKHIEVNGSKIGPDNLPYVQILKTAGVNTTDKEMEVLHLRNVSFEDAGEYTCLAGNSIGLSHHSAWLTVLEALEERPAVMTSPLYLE
Summary of the method: as §1

FGF-R4 ECD = target: T3, FGF-R4 ECD (Homo sapiens, UniProt P22455); test: single concentration BLI of crude peptides; conditions: read-out: KD (4)
T3 construct: DNA constructs for the extracellular domain (ECD) of human FGF-; HPC4 (C); made in house; host or cells: HEK 293-6E
T3 sequence (P22455 22-369 limits assumed): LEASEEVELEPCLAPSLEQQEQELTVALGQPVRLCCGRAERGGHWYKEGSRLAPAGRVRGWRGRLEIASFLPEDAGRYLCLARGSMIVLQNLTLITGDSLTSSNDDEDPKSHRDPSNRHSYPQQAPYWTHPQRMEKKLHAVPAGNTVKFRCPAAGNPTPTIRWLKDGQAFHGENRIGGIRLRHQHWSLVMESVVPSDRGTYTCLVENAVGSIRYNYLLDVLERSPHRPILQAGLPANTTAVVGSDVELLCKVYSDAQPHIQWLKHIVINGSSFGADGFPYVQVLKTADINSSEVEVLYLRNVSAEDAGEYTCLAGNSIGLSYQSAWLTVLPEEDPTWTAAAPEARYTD
Summary of the method: as §1

[1] = crude T18 selection 1 (1:1:1) peptides, single concentration BLI (Table S4)
[2] = crude NNK peptides, single concentration BLI (Table S3)

Row | Compound | pKd (FGF-R3C ECD) | pKd (FGF-R1C ECD) | pKd (FGF-R4 ECD; [1]) | pKd (FGF-R4 ECD; [2])
1 | CC[C@H](C)[C@@H]1NC(=O)[C@H](CCCCN)NC(=O)[C@H](Cc2ccc(O)cc2)NC(=O)[C@H](Cc2ccc(O)cc2)NC(=O)[C@H](Cc2c[nH]cn2)NC(=O)[C@H](Cc2c[nH]c3ccccc23)NC(=O)[C@H](CC(C)C)NC(=O)[C@@H](NC(=O)[C@H](CCSC)NC(C)=O)CSSC[C@@H](C(=O)NCC(=O)N[C@@H](CO)C(=O)NCC(=O)N[C@@H](CO)C(=O)N[C@@H](CC(=O)O)C(=O)N[C@@H](Cc2ccc(O)cc2)C(=O)N[C@@H](CCCCN)C(=O)N[C@@H](CC(=O)O)C(=O)N[C@@H](CC(=O)O)C(=O)N[C@@H](CC(=O)O)C(=O)N[C@@H](CC(=O)O)C(=O)N[C@@H](CCCCN)C(N)=O)NC(=O)[C@H](CCCCN)NC(=O)[C@H](CCC(N)=O)NC(=O)[C@H](CCCNC(=N)N)NC(=O)[C@H](CCCNC(=N)N)NC(=O)[C@H](Cc2ccccc2)NC1=O (Ac-MCLWHYYKIFRRQKCGSGSDYKDDDDK-NH2; disulfide 2-15) | < 5.00 | 7.02 | 8.10 | –
2 | CSCC[C@H](NC(C)=O)C(=O)N[C@H]1CSSC[C@@H](C(=O)NCC(=O)N[C@@H](CO)C(=O)NCC(=O)N[C@@H](CO)C(=O)N[C@@H](CC(=O)O)C(=O)N[C@@H](Cc2ccc(O)cc2)C(=O)N[C@@H](CCCCN)C(=O)N[C@@H](CC(=O)O)C(=O)N[C@@H](CC(=O)O)C(=O)N[C@@H](CC(=O)O)C(=O)N[C@@H](CC(=O)O)C(=O)N[C@@H](CCCCN)C(N)=O)NC(=O)[C@H](CCC(=O)O)NC(=O)[C@H](CCCNC(=N)N)NC(=O)[C@H](CCCNC(=N)N)NC(=O)[C@H](Cc2c[nH]cn2)NC(=O)[C@H](Cc2ccccc2)NC(=O)[C@H](CCC(N)=O)NC(=O)[C@H](CC(C)C)NC(=O)[C@H](Cc2ccc(O)cc2)NC(=O)[C@H](Cc2ccc(O)cc2)NC(=O)[C@H](Cc2c[nH]c3ccccc23)NC(=O)[C@H](CC(C)C)NC1=O (Ac-MCLWYYLQFHRRECGSGSDYKDDDDK-NH2; disulfide 2-14) | < 5.00 | 7.68 | 8.30 | –
3 | CC[C@H](C)[C@@H]1NC(=O)[C@H](CCCCN)NC(=O)[C@H](Cc2ccc(O)cc2)NC(=O)[C@H](CC(C)C)NC(=O)[C@H]([C@@H](C)CC)NC(=O)[C@H]([C@@H](C)CC)NC(=O)[C@H](CC(N)=O)NC(=O)[C@@H](NC(=O)[C@H](CCSC)NC(C)=O)CSSC[C@@H](C(=O)NCC(=O)N[C@@H](CO)C(=O)NCC(=O)N[C@@H](CO)C(=O)N[C@@H](CC(=O)O)C(=O)N[C@@H](Cc2ccc(O)cc2)C(=O)N[C@@H](CCCCN)C(=O)N[C@@H](CC(=O)O)C(=O)N[C@@H](CC(=O)O)C(=O)N[C@@H](CC(=O)O)C(=O)N[C@@H](CC(=O)O)C(=O)N[C@@H](CCCCN)C(N)=O)NC(=O)[C@H](CCCNC(=N)N)NC(=O)[C@H](CC(N)=O)NC(=O)[C@H](CCCCN)NC(=O)[C@H](CCSC)NC1=O (Ac-MCNIILYKIMKNRCGSGSDYKDDDDK-NH2; disulfide 2-14) | < 5.00 | < 5.00 | – | < 5.00
4 | CC[C@H](C)[C@@H]1NC(=O)[C@H](CC(N)=O)NC(=O)[C@@H](NC(=O)[C@H](CCSC)NC(C)=O)CSSC[C@@H](C(=O)NCC(=O)N[C@@H](CO)C(=O)NCC(=O)N[C@@H](CO)C(=O)N[C@@H](CC(=O)O)C(=O)N[C@@H](Cc2ccc(O)cc2)C(=O)N[C@@H](CCCCN)C(=O)N[C@@H](CC(=O)O)C(=O)N[C@@H](CC(=O)O)C(=O)N[C@@H](CC(=O)O)C(=O)N[C@@H](CC(=O)O)C(=O)N[C@@H](CCCCN)C(N)=O)NC(=O)[C@H](C(C)C)NC(=O)[C@H](CO)NC(=O)[C@H](CC(C)C)NC(=O)[C@H]([C@@H](C)CC)NC(=O)[C@H](CCCCN)NC(=O)[C@H](Cc2ccc(O)cc2)NC(=O)[C@H](CC(C)C)NC(=O)[C@H](CC(C)C)NC1=O (Ac-MCNILLYKILSVCGSGSDYKDDDDK-NH2; disulfide 2-13) | < 5.00 | < 5.00 | – | 6.98
5 | CC[C@H](C)[C@@H]1NC(=O)[C@H](Cc2ccc(O)cc2)NC(=O)[C@H](C)NC(=O)[C@H](C(C)C)NC(=O)[C@H](Cc2ccc(O)cc2)NC(=O)CNC(=O)[C@H](Cc2c[nH]cn2)NC(=O)[C@H]([C@@H](C)CC)NC(=O)[C@H]([C@@H](C)CC)NC(=O)[C@H](CO)NC(=O)[C@H](CC(C)C)NC(=O)[C@H](CC(N)=O)NC(=O)[C@@H](NC(=O)[C@H](CCSC)NC(C)=O)CSSC[C@@H](C(=O)NCC(=O)N[C@@H](CO)C(=O)NCC(=O)N[C@@H](CO)C(=O)N[C@@H](CC(=O)O)C(=O)N[C@@H](Cc2ccc(O)cc2)C(=O)N[C@@H](CCCCN)C(=O)N[C@@H](CC(=O)O)C(=O)N[C@@H](CC(=O)O)C(=O)N[C@@H](CC(=O)O)C(=O)N[C@@H](CC(=O)O)C(=O)N[C@@H](CCCCN)C(N)=O)NC1=O (Ac-MCNLSIIHGYVAYICGSGSDYKDDDDK-NH2; disulfide 2-15) | < 5.00 | < 5.00 | 9.00 | –
6 | CC[C@H](C)[C@@H]1NC(=O)[C@H](CCCCN)NC(=O)[C@H](Cc2ccccc2)NC(=O)[C@H](Cc2ccccc2)NC(=O)[C@H](Cc2c[nH]cn2)NC(=O)[C@H]([C@@H](C)CC)NC(=O)[C@@H]2CCCN2C(=O)[C@@H](NC(=O)[C@H](CCSC)NC(C)=O)CSSC[C@@H](C(=O)NCC(=O)N[C@@H](CO)C(=O)NCC(=O)N[C@@H](CO)C(=O)N[C@@H](CCC(=O)O)C(=O)N[C@@H](CCC(=O)O)C(=O)NCC(=O)N[C@@H](CO)C(=O)NCC(=O)N[C@@H](CO)C(=O)N[C@@H](CC(=O)O)C(=O)N[C@@H](Cc2ccc(O)cc2)C(=O)N[C@@H](CCCCN)C(=O)N[C@@H](CC(=O)O)C(=O)N[C@@H](CC(=O)O)C(=O)N[C@@H](CC(=O)O)C(=O)N[C@@H](CC(=O)O)C(=O)N[C@@H](CCCCN)C(N)=O)NC(=O)[C@H](Cc2c[nH]cn2)NC(=O)[C@H](CCCNC(=N)N)NC(=O)[C@H](Cc2ccc(O)cc2)NC(=O)[C@H](C(C)C)NC1=O (Ac-MCPIHFFKIVYRHCGSGSEEGSGSDYKDDDDK-NH2; disulfide 2-14) | < 5.00 | 8.00 | 8.00 | –
7 | CC[C@H](C)[C@@H]1NC(=O)[C@H](CC(C)C)NC(=O)[C@H](Cc2c[nH]c3ccccc23)NC(=O)[C@H](CCCCN)NC(=O)[C@@H]2CCCN2C(=O)[C@@H](NC(=O)[C@H](CCSC)NC(C)=O)CSSC[C@@H](C(=O)NCC(=O)N[C@@H](CO)C(=O)NCC(=O)N[C@@H](CO)C(=O)N[C@@H](CC(=O)O)C(=O)N[C@@H](Cc2ccc(O)cc2)C(=O)N[C@@H](CCCCN)C(=O)N[C@@H](CC(=O)O)C(=O)N[C@@H](CC(=O)O)C(=O)N[C@@H](CC(=O)O)C(=O)N[C@@H](CC(=O)O)C(=O)N[C@@H](CCCCN)C(N)=O)NC(=O)[C@H](CC(N)=O)NC(=O)[C@H](CC(C)C)NC(=O)[C@H](CC(C)C)NC(=O)[C@H](C(C)C)NC(=O)[C@H](CCCCN)NC1=O (Ac-MCPKWLIKVLLNCGSGSDYKDDDDK-NH2; disulfide 2-13) | < 5.00 | < 5.00 | – | 5.38
8 | CSCC[C@H](NC(C)=O)C(=O)N[C@H]1CSSC[C@@H](C(=O)NCC(=O)N[C@@H](CO)C(=O)NCC(=O)N[C@@H](CO)C(=O)N[C@@H](CC(=O)O)C(=O)N[C@@H](Cc2ccc(O)cc2)C(=O)N[C@@H](CCCCN)C(=O)N[C@@H](CC(=O)O)C(=O)N[C@@H](CC(=O)O)C(=O)N[C@@H](CC(=O)O)C(=O)N[C@@H](CC(=O)O)C(=O)N[C@@H](CCCCN)C(N)=O)NC(=O)[C@H]([C@@H](C)O)NC(=O)[C@H](CCSC)NC(=O)[C@H](CC(C)C)NC(=O)[C@H](CCCNC(=N)N)NC(=O)[C@H](Cc2c[nH]c3ccccc23)NC(=O)[C@H](CC(C)C)NC(=O)[C@H](CC(C)C)NC(=O)[C@H](Cc2ccccc2)NC(=O)[C@H](Cc2ccc(O)cc2)NC(=O)[C@H](CCCCN)NC(=O)[C@@H]2CCCN2C1=O (Ac-MCPKYFLLWRLMTCGSGSDYKDDDDK-NH2; disulfide 2-14) | < 5.00 | < 5.00 | – | 5.74
